From US20050203482A1, “Pharmaceutical dispensing apparatus and method” (priority 2004, published 2005)
In brackets after ≈: the same amount, converted by molar mass.

Experiment: physchem
Source text: The solvents and co-solvents are listed by percentage of volume.

solubility (aqueous with cosolvent or surfactant or cyclodextrin, solvent 2-P 56%, co-solvent Water 44%, approximate): 56 mg/mL (≈ 71.7 mM) | solubility (aqueous with cosolvent or surfactant or cyclodextrin, solvent 55% Water, co-solvent 45% H-107, approximate): 52 mg/mL (≈ 66.6 mM) | solubility (aqueous with cosolvent or surfactant or cyclodextrin, solvent Ethanol 80%, co-solvent Water 17%, additive Glycerin 3%, approximate): 9 mg/mL (≈ 11.5 mM) | solubility (organic solvent or mixture, solvent 1,5-pentanediol, approximate): < 21.9 mg/mL | solubility (organic solvent or mixture, solvent 2-P 80%, co-solvent Ethanol 20%, approximate): ≥ 75 mg/mL | solubility (organic solvent or mixture, solvent 2-P 100%, approximate): 102 mg/mL (≈ 131 mM) | solubility (organic solvent or mixture, solvent Acetone, approximate): < 30 mg/mL | solubility (organic solvent or mixture, solvent DMSO 80%, co-solvent (EtOH) ethanol alcohol 20%, approximate): 200 mg/mL (≈ 256 mM) | solubility (organic solvent or mixture, solvent Ethanol 100%, approximate): 9 mg/mL (≈ 11.5 mM) | solubility (organic solvent or mixture, solvent Ethyl acetate, approximate): < 16.3 mg/mL | solubility (organic solvent or mixture, solvent Ethylene glycol (LEG), approximate): < 16.3 mg/mL | solubility (organic solvent or mixture, solvent Glycerine, approximate): < 14.2 mg/mL | solubility (organic solvent or mixture, solvent Polyethylene glycol 400 90% Absolute ethanol 6%, co-solvent Water 1%, additive Propylene glycol 3%, approximate): 0.25 mg/mL (≈ 0.32 mM) | solubility (organic solvent or mixture, solvent Polyethylene glycols (PEGs), approximate): < 19.3 mg/mL | solubility (water, solvent Water, approximate): 0.024 to 0.07 mg/mL (≈ 0.0307 to 0.0896 mM)
SMILES: C[C@H]1O[C@@H](O[C@H]2[C@@H](O)C[C@H](O[C@H]3[C@@H](O)C[C@H](O[C@H]4CC[C@@]5(C)[C@H](CC[C@@H]6[C@@H]5C[C@@H](O)[C@]5(C)[C@@H](C7=CC(=O)OC7)CC[C@]65O)C4)O[C@@H]3C)O[C@@H]2C)C[C@H](O)[C@@H]1O [Digoxin]
